What all share (assay type): cell-based, mice
Assay [1] relates to differentiated 3T3-L1 cells. The experiment in a line: Fluorescence assay of glycerol released, Protocol 1 (without epinephrine). The note with it: for Release of glycerol: summary. The protocol: (§1) The effects on the release of glycerol were tested in the presence of all the test products and using a fluorescence assay method. Glycerol was then assayed with regard to certain selected products using a calorimetric method and in the presence or the absence of HgCl2.
(§2) The cells used were mice preadipocytes of the 3T3-L1 line (40 000 cells/well).
(§3) The cells were cultured until confluency in a growth medium, with a change in medium every 2-3 days (24-well plates). • Growth medium: • DMEM (Life Technologies 21969035) L-glutamine, 2 mM (Life Technologies 25030024) • Penicillin 50 IU/ml streptomycin 50 μg/ml (Life Technologies 15070063) • Amphotericin B, 0.25 μg/ml (Sigma A2942) • Foetal calf serum, 10% v/v (Life Technologies 10106151).
(§4) At high confluency, the cells were transferred into a differentiation medium for 2×48 hours. • Differentiation medium: • DMEM (Life Technologies 21969035) • L-glutamine, 2 mM (Life Technologies 25030024) • Penicillin 50 IU/ml streptomycin 50 μg/ml (Life Technologies 15070063) • Foetal calf serum, 10% v/v (Life Technologies 10106151), • Isobutylmethylxanthine, 0.5 mM (IBMX, Sigma 17018) • Insulin, 5 μg/ml (Sigma 11882) • Dexamethasone, 1 μM (Sigma D1756)
After differentiation, the cells were transferred into DMEM medium+insulin (5 μg/ml final) for 72 hours and then into growth medium (DMEM/10% serum).
The differentiated cells were placed in test medium (MEM 100% (v/v), bicarbonate 1.87 mg/ml, glutamine 2 mM, delipidated bovine serum albumin 0.5% (w/v), penicillin/streptomycin 25 IU/ml/25 μg/ml) and were then treated with the test products or the references. After incubating at 37° C. for 1 h and 5% CO2, the culture supernatants were removed in order to assay the glycerol released.
The glycerol released into the culture medium was with a determined content of directly by measuring the fluorescence of the NADH produced in the following reaction sequence (according to Wieland). [drawing 1] Autofluorescence and quenching (absorption of the fluorescence) controls were carried out in order to determine possible interference of the products in this assay.

In assay [2] the test system is Aquaporin adipose (AQPap) messenger. The experiment in a line: Relative expression of AQPap messenger by RT-Q-PCR in differentiated 3T3-L1 cells. The following applies: for RE*AQP7 / AQP7/Actin % Control: 6 h; for RE*AQP7: n=2; for AQP7/Actin % Control: differentiated control = 100; for mRNA stimulation: summary. The protocol:
The test was carried out on differentiated 3T3-L1 cells obtained as described in Example 1.
The differentiated cells were placed beforehand in test medium for 24 hours and were then treated with the test products or the references. After incubating for 6 h at 37° C. and 5% CO2, the culture supernatants were removed, the cells were rinsed with a PBS solution and the cell layers were placed in Tri-Reagent (Sigma T9424) and then immediately frozen at −80° C.
The expression of the markers selected was evaluated by RT-Q-PCR with regard to the messenger RNAs extracted from the cells corresponding to each treatment.
The marker β-actin (M12481) was used as reference marker.
The operational stages are as follows: • Extraction of the total RNAs using Tri-Reagent according to the protocol recommended by the supplier. Then further extraction with chloroform and precipitation with isopropanol. • Removal of the traces of potentially contaminating DNA by treatment with the DNA-free system (Ambion). After monitoring the quality of the RNAs obtained, the three samples corresponding to each treatment were pooled. • Carrying out the reverse transcription reaction on the mRNA in the presence of the oligo(dT) primer and of the Superscript II (Gibco) enzyme. • Quantification by fluorescence of the synthesized cDNA and adjustment of the concentrations to 50 ng/μl. Further quantification of each cDNA, after final dilution, is carried out before the PCR reaction.
The PCR (polymerase chain reactions) reactions were carried out by quantitative PCR with the “Light Cycler” system (Roche Molecular Systems Inc.) and according to the procedures recommended by the supplier.
The incorporation of fluorescence into the amplified DNA is carried out continuously during the PCR cycles. This system makes it possible to obtain curves of measurement of the fluorescence as a function of the PCR cycles and to thus evaluate a value of relative expression for each marker.
The number of cycles is determined from the “exit” points of the fluorescence curves. For the same marker analysed, the later the sample exits (high cycle number), the lower the initial number of mRNA copies.
The RE (relative expression) value is expressed in arbitrary units according to the following formula: (1/2^number of cycles)×10^6
Results: Effects of the various treatments on the relative expression of the Aquaporin adipose (AQPap) messenger. Results with respect to the amount of actin messenger (reference gene).
RE=Relative Expression, expressed in arbitrary units (AU), n=2.

For assay [3], the system named is differentiated 3T3-L1 cells. The experiment in a line: Colorimetric assay of glycerol released, Protocol 1. The following applies: Protocol 1, 40 μM. Here is the method: as §1, §2, §3, §4
After differentiation, the cells were transferred into DMEM medium+insulin (5 μg/ml final) for 72 hours and then into growth medium (DMEM/10% serum). […]

The test system of assay [4] is differentiated 3T3-L1 cells. The experiment in a line: Fluorescence assay of glycerol released, HgCl2 protocol (Protocol 3). The note with it: 10 mM. Here is the method: The majority of mammalian aquaporins are inhibited by mercury and its salts, whereas chemical inhibitors of diffusion are unknown (P. Agre et al., J. of Physiology, 2002, 542.1). The cells used were mice preadipocytes of the 3T3-L1 line (40 000 cells/well). The cells were cultured until confluency in a growth medium, with a change in medium every 2-3 days (24-well plates). • Growth medium: • DMEM (Life Technologies 21969035) L-glutamine, 2 mM (Life Technologies 25030024) • Penicillin 50 IU/ml streptomycin 50 μg/ml (Life Technologies 15070063) • Amphotericin B, 0.25 μg/ml (Sigma A2942) • Foetal calf serum, 10% v/v (Life Technologies 10106151). […] After differentiation, the cells were transferred into DMEM medium+insulin (5 μg/ml final) for 72 hours and then into growth medium (DMEM/10% serum). […] The differentiated cells were placed in test medium for 24 h. The cells were subsequently placed in PBS buffer comprising or not comprising HgCl2 (30 μM final) for 5 minutes at 37° C. After treatment with HgCl2, the cells were washed twice in PBS and then placed in test medium comprising or not comprising the test products. The culture supernatants were subsequently removed in order to assay the glycerol released.

[5] abbreviates: Protocol 1 (Caophenol table), 40 μM.

Consider five compounds from US20050186290A1, “Use of aquaglyceroporin modulators as slimming agent” (L'OREAL, priority 2003, published 2005).

Consider `CCCCCCCCCCC#CCSCC(=O)O` [(Tridec-2-ynylthio)acetic acid], for which, in assay [1] (0.16-4.0 μg/ml), the Release of glycerol entry is “No”. For the same compound, the “RE*AQP7” value in assay [2] (0.00032 mg/ml) is reported as 0.912 AU; in assay [2] (0.0016 mg/ml), 0.872 AU; in assay [2] (0.008 mg/ml), 0.032 AU. For the same compound, the “AQP7/Actin % Control” value in assay [2] (0.00032 mg/ml) worked out at 130%; in assay [2] (0.0016 mg/ml), 105%; in assay [2] (0.008 mg/ml) it was 174%. Moreover, in assay [2] (0.16-4.0 μg/ml), the mRNA stimulation result is “Yes”.

On to `CNC[C@H](O)c1ccc(O)c(O)c1` [Epinephrine], for which the “% Control” value stood at 327% in assay [1] (setting [5]); 352% in assay [1] (Protocol 1, 40 μM, 1 h); 795% in assay [3]. Besides, the “% theory, taking into account the quenching control” value in assay [1] (setting [5]) is 327%. The Glycerol in assay [1] (setting [5]) turned out to be 101.85 µM; in assay [1] (Protocol 1, 40 μM, 1 h), 117.57 µM; in assay [1] (differentiated preadipocytes, epinephrine 40 μM), 149.5 µM; in assay [3], 449.74 µM. For the same compound, the Δ% in assay [1] (differentiated preadipocytes, epinephrine 40 μM, unstimulated differentiated = 100) turned out to be 383%.

Turning to `CCCCCCCCSCC#CCSCC(=O)O` [{[4-(Octylthio)but-2-ynyl]thio}acetic acid], in assay [1] (0.32-8.0 μg/ml), the Release of glycerol result is “No”. Further, the “RE*AQP7” value is reported as 0.023 AU in assay [2] (0.00016 mg/ml), 0.022 AU in assay [2] (0.0008 mg/ml) and 0.020 AU in assay [2] (0.004 mg/ml). Also, the results for the “AQP7/Actin % Control” value in assay [2] (0.00016 mg/ml), in assay [2] (0.0008 mg/ml) and in assay [2] (0.004 mg/ml) were 128%, 153% and 167%, respectively. Besides, the mRNA stimulation entry in assay [2] (0.32-8.0 μg/ml) is listed as “Yes”.

With `OCCS` [β-Mercaptol], in assay [4], the “% theory, taking into account the quenching control” value is given as 155% and the Glycerol was found to be 135.74 µM. The “% Control” value in assay [4] (HgCl2 control = 100) came to 155%.

For the compound Aescin, the “RE*AQP7” value in assay [2] (0.000128 mg/ml) amounted to 0.034 AU; in assay [2] (0.00064 mg/ml) it was 0.039 AU; in assay [2] (0.0032 mg/ml) it was 0.043 AU. Further, the “AQP7/Actin % Control” value in assay [2] (0.000128 mg/ml) was 134%; in assay [2] (0.00064 mg/ml) it was 168%; in assay [2] (0.0032 mg/ml), 164%. The mRNA stimulation result in assay [2] (0.128-3.2 μg/ml) is “Yes”.
